According to article PMC7736581, “Activation of the IRE1 RNase through remodeling of the kinase front pocket by ATP-competitive ligands” (Nature Communications, 2020):

How the values were obtained:
Cot = target: T1, Cot (Homo sapiens, UniProt P41279); test: biochemical; set-up: Invitrogen kinase panel: Z'Lyte activity (ATP at Km) or LanthaScreen competitive ATP-site binding, percent inhibition
T1 construct: gene MAP3K8

PKC_iota = target: T2, PKC_iota (Homo sapiens, UniProt P41743); test: biochemical; set-up: Invitrogen kinase panel: Z'Lyte activity (ATP at Km) or LanthaScreen competitive ATP-site binding, percent inhibition
T2 construct: gene PRKCI
T2 sequence (P41743 whole entry): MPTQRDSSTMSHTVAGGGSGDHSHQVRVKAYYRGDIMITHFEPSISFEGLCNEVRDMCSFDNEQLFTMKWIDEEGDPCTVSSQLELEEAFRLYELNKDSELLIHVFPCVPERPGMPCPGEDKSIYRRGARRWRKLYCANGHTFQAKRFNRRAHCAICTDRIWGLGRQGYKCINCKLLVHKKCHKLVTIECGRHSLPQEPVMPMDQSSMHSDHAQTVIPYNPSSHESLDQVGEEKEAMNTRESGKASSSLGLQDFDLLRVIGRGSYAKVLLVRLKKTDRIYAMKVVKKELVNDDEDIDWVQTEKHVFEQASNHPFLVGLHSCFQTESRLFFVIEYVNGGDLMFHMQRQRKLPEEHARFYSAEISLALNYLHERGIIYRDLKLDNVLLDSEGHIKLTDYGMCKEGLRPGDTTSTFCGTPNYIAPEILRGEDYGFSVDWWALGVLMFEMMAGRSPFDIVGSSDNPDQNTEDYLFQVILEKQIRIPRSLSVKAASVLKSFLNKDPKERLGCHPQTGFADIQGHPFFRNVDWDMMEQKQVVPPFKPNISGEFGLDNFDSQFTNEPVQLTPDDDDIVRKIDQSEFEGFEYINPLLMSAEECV

T1 sequence (P41279 whole entry): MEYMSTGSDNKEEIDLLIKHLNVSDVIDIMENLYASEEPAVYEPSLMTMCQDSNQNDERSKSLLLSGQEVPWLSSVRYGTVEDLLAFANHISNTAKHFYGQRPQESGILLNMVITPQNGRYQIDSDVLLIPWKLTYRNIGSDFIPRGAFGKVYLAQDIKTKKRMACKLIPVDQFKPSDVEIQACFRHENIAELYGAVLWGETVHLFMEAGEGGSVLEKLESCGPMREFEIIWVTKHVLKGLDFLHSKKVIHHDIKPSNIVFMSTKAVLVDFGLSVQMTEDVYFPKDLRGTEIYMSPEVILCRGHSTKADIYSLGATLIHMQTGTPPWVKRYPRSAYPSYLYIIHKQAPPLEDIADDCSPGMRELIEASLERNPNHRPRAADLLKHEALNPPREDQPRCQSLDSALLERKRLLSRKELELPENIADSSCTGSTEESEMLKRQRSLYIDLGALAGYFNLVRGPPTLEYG

An inhibition at 1 µM (Cot) of 94% and an inhibition at 1 µM (PKC_iota) of 46.6% were found for `O=c1cc(-c2n[nH]c3ncc(-c4c(F)cccc4F)cc23)nc(N2CCC(O)CC2)[nH]1` [G-9807] in this work.
